Measurements published in the NIST ThermoML archive (doi:10.1021/je200628n).
± gives the expanded uncertainty stated by the source.

Test: activity coefficient (dimensionless); of the first substance listed, at infinite dilution; xn = mol fraction of the nth substance listed
Details: 101 kPa, Liquid, Chromatography, x1 = 0

SMILES	activity coefficient (348.25 K)	activity coefficient (353.15 K)	activity coefficient (358.25 K)	activity coefficient (363.21 K)	activity coefficient (338.2 K)	activity coefficient (348.15 K)	activity coefficient (353.22 K)	activity coefficient (328.15 K)	activity coefficient (338.15 K)	activity coefficient (343.15 K)
CCCCCl [1-chlorobutane] + NCCCCCCCCCCCCN	2.71 ± 0.14	2.63 ± 0.14	2.56 ± 0.13	2.46 ± 0.13	–	–	–	–	–	–
CCCCCl [1-chlorobutane] + NCCCCCCCCCCN	–	–	–	–	2.38 ± 0.12	2.12 ± 0.11	2.01 ± 0.1	–	–	–
CCCCCl [1-chlorobutane] + NCCCCCCCCN	–	–	–	–	–	1.48 ± 0.071	–	1.88 ± 0.095	1.65 ± 0.081	1.55 ± 0.075
C=CCCC [1-pentene] + NCCCCCCCCCCCCN	4.21 ± 0.22	4.04 ± 0.21	3.89 ± 0.2	3.75 ± 0.19	–	–	–	–	–	–
c1ccccc1 [benzene] + NCCCCCCCCCCCCN	2.08 ± 0.11	2.07 ± 0.11	2.06 ± 0.1	2.04 ± 0.1	–	–	–	–	–	–
c1ccccc1 [benzene] + NCCCCCCCCCCN	–	–	–	–	1.72 ± 0.086	1.61 ± 0.079	1.58 ± 0.077	–	–	–
c1ccccc1 [benzene] + NCCCCCCCCN	–	–	–	–	–	1.59 ± 0.078	–	1.8 ± 0.09	1.67 ± 0.083	1.62 ± 0.08
CCCCOC(C)=O [butyl ethanoate] + NCCCCCCCCCCCCN	1.69 ± 0.084	1.57 ± 0.077	1.46 ± 0.07	1.36 ± 0.065	–	–	–	–	–	–
CCCCOC(C)=O [butyl ethanoate] + NCCCCCCCCCCN	–	–	–	–	1.5 ± 0.073	1.17 ± 0.054	1.03 ± 0.046	–	–	–
CCCCOC(C)=O [butyl ethanoate] + NCCCCCCCCN	–	–	–	–	–	1.05 ± 0.047	–	1.51 ± 0.073	1.25 ± 0.058	1.14 ± 0.052
ClCCl [dichloromethane] + NCCCCCCCCCCCCN	1.33 ± 0.062	1.23 ± 0.057	1.12 ± 0.05	1.05 ± 0.046	–	–	–	–	–	–
ClCCl [dichloromethane] + NCCCCCCCCCCN	–	–	–	–	1.19 ± 0.054	1.09 ± 0.049	0.985 ± 0.043	–	–	–
ClCCl [dichloromethane] + NCCCCCCCCN	–	–	–	–	–	0.513 ± 0.031	–	0.657 ± 0.034	0.552 ± 0.032	0.53 ± 0.031
CCOCC [diethyl ether] + NCCCCCCCCCCCCN	4.45 ± 0.23	4.37 ± 0.22	4.33 ± 0.22	4.25 ± 0.22	–	–	–	–	–	–
CCOCC [diethyl ether] + NCCCCCCCCCCN	–	–	–	–	3.84 ± 0.2	3.69 ± 0.19	3.64 ± 0.19	–	–	–
CCOCC [diethyl ether] + NCCCCCCCCN	–	–	–	–	–	3.36 ± 0.17	–	3.52 ± 0.18	3.4 ± 0.17	3.37 ± 0.17
CCO [ethanol] + NCCCCCCCCCCCCN	0.828 ± 0.039	0.891 ± 0.04	0.952 ± 0.042	1.03 ± 0.045	–	–	–	–	–	–
CCO [ethanol] + NCCCCCCCCCCN	–	–	–	–	0.602 ± 0.033	0.676 ± 0.034	0.718 ± 0.035	–	–	–
CCO [ethanol] + NCCCCCCCCN	–	–	–	–	–	0.435 ± 0.029	–	0.384 ± 0.029	0.407 ± 0.029	0.42 ± 0.029
CCOC(C)=O [ethyl acetate] + NCCCCCCCCCCCCN	1.36 ± 0.064	1.29 ± 0.06	1.22 ± 0.056	1.15 ± 0.052	–	–	–	–	–	–
CCOC(C)=O [ethyl acetate] + NCCCCCCCCCCN	–	–	–	–	1.16 ± 0.053	0.951 ± 0.042	0.868 ± 0.04	–	–	–
CCOC(C)=O [ethyl acetate] + NCCCCCCCCN	–	–	–	–	–	0.855 ± 0.039	–	1.08 ± 0.048	0.954 ± 0.042	0.902 ± 0.041
CCc1ccccc1 [ethylbenzene] + NCCCCCCCCCCCCN	2.5 ± 0.13	2.47 ± 0.13	2.42 ± 0.12	2.39 ± 0.12	–	–	–	–	–	–
CCc1ccccc1 [ethylbenzene] + NCCCCCCCCCCN	–	–	–	–	1.97 ± 0.1	1.78 ± 0.089	1.72 ± 0.085	–	–	–
CCc1ccccc1 [ethylbenzene] + NCCCCCCCCN	–	–	–	–	–	1.72 ± 0.085	–	2.07 ± 0.11	1.86 ± 0.094	1.77 ± 0.089
CO [methanol] + NCCCCCCCCCCCCN	0.774 ± 0.037	0.841 ± 0.039	0.919 ± 0.041	1.01 ± 0.044	–	–	–	–	–	–
CO [methanol] + NCCCCCCCCCCN	–	–	–	–	0.551 ± 0.032	0.634 ± 0.033	0.682 ± 0.035	–	–	–
CO [methanol] + NCCCCCCCCN	–	–	–	–	–	0.369 ± 0.029	–	0.284 ± 0.028	0.317 ± 0.028	0.34 ± 0.028

The next lines start with the values.

activity coefficient (348.25 K)	activity coefficient (353.15 K)	activity coefficient (358.25 K)	activity coefficient (363.21 K)	activity coefficient (338.2 K)	activity coefficient (348.15 K)	activity coefficient (353.22 K)	activity coefficient (328.15 K)	activity coefficient (338.15 K)	activity coefficient (343.15 K)	SMILES
4.5 ± 0.23	4.27 ± 0.22	4.11 ± 0.21	3.94 ± 0.2	–	–	–	–	–	–	CCCCCCCl [1-chlorohexane] + NCCCCCCCCCCCCN
–	–	–	–	3.46 ± 0.18	2.81 ± 0.14	2.54 ± 0.13	–	–	–	CCCCCCCl [1-chlorohexane] + NCCCCCCCCCCN
–	–	–	–	–	2.02 ± 0.1	–	3.85 ± 0.2	2.73 ± 0.14	2.38 ± 0.12	CCCCCCCl [1-chlorohexane] + NCCCCCCCCN
3.08 ± 0.16	2.91 ± 0.15	2.73 ± 0.14	2.68 ± 0.14	–	–	–	–	–	–	CCCCCCl [1-chloropentane] + NCCCCCCCCCCCCN
–	–	–	–	2.94 ± 0.15	2.43 ± 0.12	2.23 ± 0.12	–	–	–	CCCCCCl [1-chloropentane] + NCCCCCCCCCCN
–	–	–	–	–	1.73 ± 0.087	–	2.71 ± 0.14	2.12 ± 0.11	1.92 ± 0.098	CCCCCCl [1-chloropentane] + NCCCCCCCCN
5.05 ± 0.26	4.8 ± 0.25	4.47 ± 0.23	4.24 ± 0.22	–	–	–	–	–	–	C=CCCCCCCCC [1-decene] + NCCCCCCCCCCCCN
–	–	–	–	4.34 ± 0.22	3.82 ± 0.2	3.57 ± 0.18	–	–	–	C=CCCCCCCCC [1-decene] + NCCCCCCCCCCN
–	–	–	–	–	3.14 ± 0.16	–	4.24 ± 0.22	3.58 ± 0.18	3.33 ± 0.17	C=CCCCCCCCC [1-decene] + NCCCCCCCCN
4.43 ± 0.23	4.22 ± 0.22	4.08 ± 0.21	3.88 ± 0.2	–	–	–	–	–	–	C=CCCCCC [1-heptene] + NCCCCCCCCCCCCN
–	–	–	–	3.43 ± 0.18	3.1 ± 0.16	2.97 ± 0.15	–	–	–	C=CCCCCC [1-heptene] + NCCCCCCCCCCN
–	–	–	–	–	2.93 ± 0.15	–	3.59 ± 0.18	3.21 ± 0.17	3.03 ± 0.15	C=CCCCCC [1-heptene] + NCCCCCCCCN
–	–	–	–	3.23 ± 0.17	2.98 ± 0.15	2.88 ± 0.15	–	–	–	C=CCCC [1-pentene] + NCCCCCCCCCCN
–	–	–	–	–	2.65 ± 0.14	–	2.81 ± 0.14	2.7 ± 0.14	2.67 ± 0.14	C=CCCC [1-pentene] + NCCCCCCCCN
1.07 ± 0.048	1.1 ± 0.049	1.12 ± 0.051	1.16 ± 0.053	–	–	–	–	–	–	CCCCO [butan-1-ol] + NCCCCCCCCCCCCN
–	–	–	–	0.721 ± 0.035	0.774 ± 0.037	0.815 ± 0.038	–	–	–	CCCCO [butan-1-ol] + NCCCCCCCCCCN
–	–	–	–	–	0.692 ± 0.035	–	0.669 ± 0.034	0.675 ± 0.034	0.681 ± 0.034	CCCCO [butan-1-ol] + NCCCCCCCCN
6.11 ± 0.31	5.89 ± 0.3	5.74 ± 0.29	5.6 ± 0.29	–	–	–	–	–	–	CCCCCCCCCC [decane] + NCCCCCCCCCCCCN
–	–	–	–	5.59 ± 0.29	5.03 ± 0.26	4.78 ± 0.25	–	–	–	CCCCCCCCCC [decane] + NCCCCCCCCCCN
–	–	–	–	–	4.36 ± 0.22	–	5.47 ± 0.28	4.82 ± 0.25	4.58 ± 0.23	CCCCCCCCCC [decane] + NCCCCCCCCN
5.21 ± 0.27	5.13 ± 0.26	5.04 ± 0.26	4.97 ± 0.26	–	–	–	–	–	–	CCCCCCC [heptane] + NCCCCCCCCCCCCN
–	–	–	–	5.05 ± 0.26	4.64 ± 0.24	4.46 ± 0.23	–	–	–	CCCCCCC [heptane] + NCCCCCCCCCCN
–	–	–	–	–	3.95 ± 0.2	–	4.36 ± 0.22	4.09 ± 0.21	4 ± 0.2	CCCCCCC [heptane] + NCCCCCCCCN
4.28 ± 0.22	4.12 ± 0.21	3.93 ± 0.2	3.8 ± 0.2	–	–	–	–	–	–	C=CCCCC [hex-1-ene] + NCCCCCCCCCCCCN
–	–	–	–	3.37 ± 0.17	3.06 ± 0.16	2.92 ± 0.15	–	–	–	C=CCCCC [hex-1-ene] + NCCCCCCCCCCN
–	–	–	–	–	2.77 ± 0.14	–	3.18 ± 0.16	2.94 ± 0.15	2.85 ± 0.15	C=CCCCC [hex-1-ene] + NCCCCCCCCN
4.86 ± 0.25	4.8 ± 0.25	4.74 ± 0.24	4.69 ± 0.24	–	–	–	–	–	–	CCCCCC [hexane] + NCCCCCCCCCCCCN
–	–	–	–	4.96 ± 0.26	4.55 ± 0.23	4.41 ± 0.23	–	–	–	CCCCCC [hexane] + NCCCCCCCCCCN
–	–	–	–	–	3.72 ± 0.19	–	4.03 ± 0.21	3.83 ± 0.2	3.75 ± 0.19	CCCCCC [hexane] + NCCCCCCCCN
4.83 ± 0.25	4.53 ± 0.23	4.33 ± 0.22	4.11 ± 0.21	–	–	–	–	–	–	C=CCCCCCC [oct-1-ene] + NCCCCCCCCCCCCN
